{"source": "paper PMC6611711", "about": "(Molecular cancer therapeutics, 2018)", "origin": "cited, not measured here", "key": {"[1]": {"tested_on": "panel of cancer cell lines", "details": "inhibition of choline kinase alpha (CKα)"}, "tumor xenograft": {"tested_on": "tumor xenograft", "details": "mice"}}}
{"compound": "CN(C)c1cc[n+](CCCCCCCCCCCC[n+]2ccc(N(C)C)cc2)cc1.[Br-].[Br-]", "note": "[ICL-CCIC-0019]", "values": [{"measurement": "Growth of a panel of cancer cell lines", "setting": "[1]", "value": "suppressed growth of a panel of cancer cell lines"}, {"measurement": "Tumor xenograft growth", "setting": "tumor xenograft", "value": "inhibited tumor xenograft growth in mice"}]}
